Measured values published in patent US20240165226A1, “COMBINATION TREATMENT OF CD38-EXPRESSING TUMORS” (GENMAB A/S, priority 2006, published 2024).

Test system: Daudi-luc tumor cells
Test: In vivo SCID-luciferase experiments
Set-up: species or system SCID mice
From the text: In this model tumor cells are transfected with firefly luciferase. Upon administration of luciferin (Molecular Probes, Leiden, The Netherlands) to the mice the labeled cells can be detected in vivo by bioluminescent imaging using a highly sensitive CCD camera, cf. Wetterwald et al., American Journal of Pathology 160(3), 1143-1153 (2002).
Daudi cells were transfected with gWIZ luciferase from Gene Therapy Systems (San Diego, CA) and cultured in RPMI with 10% FCS, Pen/Strep, Sodium Pyruvate and 1 μg/ml puromycin (Sigma). Cells were analysed for luciferase expression (expressed in RLU/1×10^5 cells) in a luminometer and for CD38 expression by FACS. 2.5×10^6 luciferase-transfected Daudi cells/mouse were injected i.v. into SCID mice. Mice were treated with -003, -005, isotype control antibody (HuMab-KLH) or rituximab (anti-CD20 antibody). Antibodies were injected intraperitoneally. Four treatment settings were used (see Table 4). In the preventive setting, antibody (100 μg/mouse) and cells were administered simultaneously. In therapeutic setting I, antibody (300 μg/mouse) was administered 7 days after administration of cells. In therapeutic setting II, antibody (10 μg/mouse) was administered 14 days after administration of cells. In therapeutic setting III, antibody (100 μg/mouse) was administered 7 days after administration of cells. For imaging, mice were anesthetized by i.p. injection of a mixture of ketamine/xylazine/atropine. Synthetic D-Luciferin (sodium salt, Molecular Probes) was given i.p. at a dose of 25 mg/ml. Mice were then placed in a light tight box and after 3 min, imaging was started using a VersArray 1300B liquid nitrogen cooled CCD detector (Roper Scientific). Photons emitted from the luciferase were counted over an exposure period of 5 min. Under illumination black and white images were made for reference. MetaVue software (Universal Imaging Corp) was used for data collection and image analysis. Statistical significance of differences between groups was established using one-way analysis of variance with a Newman-Keuls post test using GraphPad PRISM version 3.02 (Graphpad Software Inc).

rituximab [anti-CD20 antibody, reference compound]
inhibition of growth of tumor cells (preventive setting, 100 μg/mouse, day 0, i.p.): inhibition observed
inhibition of growth of tumor cells (therapeutic setting I, 300 μg/mouse, day 7, i.p.): inhibition observed
